Measured values taken from US9968541B2, “Optical treatment methods” (ON Light Sciences Inc., priority 2011, dated 2018).
“Also recorded” adds a separate entry of the source.

Columns and labels:
[1] = tested on: cavitation-induced whitening immediately after laser treatment of tattoos; assay: Pilot study: topical perfluorodecalin by cotton swab prior to each laser pass in tattoo removal; format: in vivo, patients
Method: Results of a pilot study related to the disclosure will be first released publicly in April 2012. The pilot study included tattoo removal with repeated laser exposures in one session, in which the need for 20-minute treatment intervals was eliminated. The pilot study was conducted at the Laser & Skin Surgery Center of New York (New York, N.Y.), under the direction of Roy G. Geronemus MD. […] A treatment delay of twenty minutes for resolution of whitening limited practicality of the technique, requiring up to eighty minutes of treatment time per visit. Medical grade, sterile perfluorodecalin, an inert, non-toxic liquid fluorocarbon with properties including optical clarity and gas-carrying capacity, was evaluated in the pilot study in an effort to speed resolution of cavitation-induced whitening immediately after laser treatment of tattoos. Perfluorodecalin may increase the optical penetration of lasers. The pilot study was performed in consenting patients with unwanted tattoos. Each tattoo was treated in whole or part with topical perfluorodecalin by cotton swab prior to each laser pass. Lasers and settings were selected by a dermatologist. During and after treatments, extent and duration of whitening reaction was assessed as well as appearance of adverse effects, including pigmentary change or scarring. […] In fifteen tattoos, perfluorodecalin was applied prior to each laser pass and the tattoo was treated with three Q-switched ruby laser passes immediately following one another in a single session. In five tattoos, a portion was treated with perfluorodecalin prior to a single pass of Q-switched ruby or Nd:YAG laser. […] After each laser pass, the whitening reaction resolved within five seconds of perfluorodecalin application. All treatments were well-tolerated with local anesthesia.

[2] = as described by Tsai; cited from earlier work
[3] = cited from earlier work

healing (amount of blistering, crusting or other changes) compared with previous treatments ([1]; subject-reported): normal to improved healing
SMILES: FC1(F)C(F)(F)C(F)(F)C2(F)C(F)(F)C(F)(F)C(F)(F)C(F)(F)C2(F)C1(F)F (stereo not drawn) [perfluorodecalin]
time for whitening reaction to resolve after perfluorodecalin application ([1]; after each laser pass, Q-switched ruby or Nd:YAG laser, topical by cotton swab, patients' tattoos): five
adverse effects (including pigmentary change or scarring) ([1]; follow-up at 3-6 weeks): no adverse effects occurred
resolution of post-laser whitening ([1]; topical application with cotton swab, laser therapy of tattoos): effectively resolve whitening in laser therapy within seconds; also recorded: resolves post-laser whitening within seconds
treatment time for multiple passes in a single session ([1]; up to four passes in a single session, compared to about 80 minutes with R20): about 5 minutes
tolerability of treatments ([1]; with local anesthesia, perfluorodecalin prior to each laser pass): well-tolerated
toxicity [2]: non-toxic
solubility in water ([3]; as described by Tsai): very low solubility in water
thermal stability (stable up to) ([3]; generally regarded): about 400 °C
